Source: patent publication US4510136A (priority 1983, dated 1985)

Columns and labels:
Helminthosporium maydis = test: Southern corn leaf blight control on sprayed corn seedlings (Example 83); format: in vivo; details: Bipolaris maydis, 192 h, 100 ppm spray, day before inoculation
In short: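 Corn seedlings were sprayed to run-off with 100 ppm suspensions (6% acetone, 250 ppm TREM 014) and spore-inoculated the following day. Disease and growth reduction were rated after 24 h saturated humidity at 20° plus 7 days in a growth room.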

Rhizoctonia solani = test: Rice sheath blight control on sprayed rice seedlings (Example 87); format: in vivo; details: Rhizoctonia solani, 168 h, 100 ppm spray, day before inoculation
In short: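 Disease ratings followed 7 days' growth-room incubation of seedlings given a bran/R. solani mycelium inoculum. Inoculation took place one day after spraying to run-off. The spray was a 100 ppm compound suspension in water containing 6% acetone and 250 ppm TREM 014.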

Pyricularia oryzae = test: whole plant or invertebrate; format: in vivo; details: Pyricularia oryzae, 168 h, read-out: % Control of Rice Blast, 100 ppm spray, day before inoculation
apple seedlings = test: Phytotoxicity on apple seedlings (Example 82); format: in vivo; set-up: key: G = growth reduction; H = hormonal effects
Experimental: These suspensions were sprayed to the point of run-off on apple seedlings. The following day, the plants were inoculated with a spore suspension of the fungus Venturia inaequalis, causal agent of apple scab, and incubated in a saturated humidity chamber at 20° for 24 hours and then in a growth room for an additional 10-12 days. Treated plants from successful treatments had fewer apple scab lesions when compared to untreated plants which were covered with scab lesions. Phytotoxicity expressed as growth reduction was observed on some of the plants in association with disease control.

Erysiphe cichoracearum = test: Cucumber powdery mildew control on sprayed cucumber seedlings (Example 80); format: in vivo; details: Golovinomyces cichoracearum, 168 h, 100 ppm spray, day before inoculation
[1] = tested on: Puccinia recondita var. tritici; test: Wheat leaf rust control on sprayed wheat seedlings (Example 79); format: in vivo; details: Puccinia recondita, 168 h; 100 ppm spray, day before inoculation
In short: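 Disease was scored as leaf rust pustules 7 days after a 24 h, 20° saturated-humidity incubation of seedlings inoculated with P. recondita var. tritici spores. Inoculation followed by one day a run-off spray of 100 ppm compound in water containing 6% acetone and 250 ppm TREM 014.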

Venturia inaequalis = test: Apple scab control on sprayed apple seedlings (Example 82); format: in vivo; details: Venturia inaequalis; for pest or weed control at 100 ppm: 100 ppm spray, day before inoculation
Phytophthora infestans = test: whole plant or invertebrate; format: in vivo; details: Phytophthora infestans, in Solanum lycopersicum, 168 h, read-out: % Control of Tomato Late Blight, 100 ppm spray, day before inoculation
cucumber seedlings = test: Phytotoxicity on cucumber seedlings (Example 80); format: in vivo; set-up: key: G = growth reduction; H = hormonal effects; details: 100 ppm spray
Experimental: The compounds of the previous example were again dissolved in acetone in an amount equal to 6% of the final volume and then suspended at a concentration of 100 ppm in purified water containing 250 ppm of the surfactant TREM 014 (polyhydric alcohol esters). These suspensions were sprayed to the point of run-off, on cucumber seedlings. The following day, the plants were inoculated with a spore suspension of the fungus Erysiphe cichoracearum, causal agent of cucumber powdery mildew, and incubated in a growth room for 7 days. Disease ratings were then made. Treated plants from successful treatments had little or no powdery mildew in contrast to untreated plants which were covered with powdery mildew. Phytotoxicity in the form of growth reduction or hormonal effects was observed on some of the plants in association with disease control.

Cercospora arachidicola = test: Peanut early leafspot control on sprayed peanut seedlings (Example 84); format: in vivo; details: Mycosphaerella arachidis, 360 h, read-out: % Control Peanut Easly Leafspot; for pest or weed control at 100 ppm: 100 ppm spray, day before inoculation
Pythium aphanadermatum [2] = test: Pythium control on corn, seed coating (Example 92); format: in vivo; details: 504 h, 2 gm/kg seed
Experimental: Several compounds of the previous examples were incorporated into a proprietary formulation and used to coat corn seeds at a rate of 2 gm/kg seed. After being thoroughly coated, the seeds were allowed to air dry at room temperature. The seeds were then planted into soil amended with a mixture of the fungus Pythium aphanadermatum, sand, and corn meal at a rate sufficient to kill most untreated seeds. The seeds were held at 49° F. for 2 weeks and then at 70° F. for 1 additional week. After this time disease ratings were made.

Erysiphe graminis = test: Barley powdery mildew control on sprayed barley seedlings (Example 81); format: in vivo; details: Blumeria graminis, 168 h; 100 ppm spray, day before inoculation
Experimental: The compounds of the previous examples were again dissolved in acetone in an amount equal to 6% of the final volume and then suspended at a concentration of 100 ppm in purified water containing 250 ppm of the surfactant TREM 014 (polyhydric alcohol esters). These suspensions were sprayed to the point of run-off on barley seedlings. The following day, the plants were inoculated with a spore suspension of the fungus Erysiphe graminis, causal agent of barley powdery mildew, and incubated in growth room for 7 days. Disease ratings were then made. Treated plants from successful treatments had little or no powdery mildew in contrast to untreated plants which were covered with powdery mildew.

5 Phytophthora species = format: cell-based; details: 200.0 ppm in V-8 agar, 22° C., 6 days
Monilinia fructicola = test: Stone fruit brown rot control on dipped canned peach halves (Example 86); details: 120 h, 100 ppm dip, percent growth inhibition of colonies after five days
Source text: Several compounds of the previous examples were again dissolved in acetone in an amount equal to 5% of the final volume and then suspended at a concentration of 100 ppm in purified water containing 700 ppm of the surfactant TREM 014 (polyhydric alcohol esters). Canned peach halves were dipped in this suspension for three minutes and then placed to air dry in sterile containers. Upon drying, the peach halves were inoculated with two pieces of Monilinia fructicola mycelium, causal agent of stone fruit brown rot, and incubated in the sterile containers for five days. At that time the radii of the colonies' growth were measured on each peach. […] Percent disease control (percent growth inhibition of colonies on treated peaches as compared to that of colonies on untreated peaches) is expressed in the table below.

Pythium aphanadermatum [3] = test: Pythium control on cotton, seed coating (Example 91); format: in vivo; details: 168 h; for pest or weed control at 2 g/kg seed: 2 gm/kg seed
Source text: Several compounds of the previous examples were incorporated into a proprietary formulation and used to coat cotton seeds at a rate of 2 gm/kg seed. After being thoroughly coated, the seeds were allowed to air dry at room temperature. The cotton seeds were then planted into soil amended with the fungus Pythium aphanadermatum, sand, and corn meal at a rate sufficient to kill most untreated seeds. The seeds were held at room temperature for 1 week, after which time disease ratings were made.

C[Si](Cn1cncn1)(c1ccccc1)c1ccc(Cl)cc1Cl (centres unmarked) [(2,4-Dichlorophenyl)methyl(phenyl)(1H-1,2,4-triazol-1-ylmethyl)silane]
pest or weed control at 100 ppm (Helminthosporium maydis): 0% | pest or weed control at 100 ppm (Rhizoctonia solani): 0% | pest or weed control at 100 ppm (Pyricularia oryzae): 0% | Phytotoxicity on apple (apple seedlings; 100 ppm spray): G | pest or weed control at 100 ppm (Erysiphe cichoracearum): 100% | pest or weed control at 100 ppm [1]: 100% | pest or weed control at 100 ppm (Venturia inaequalis): 100% | pest or weed control at 100 ppm (Phytophthora infestans): 0% | Phytotoxicity on cucumber (cucumber seedlings): G | pest or weed control at 100 ppm (Cercospora arachidicola): 100%

C[Si](C)(Cn1cncn1)c1ccc(Cl)c(Cl)c1 [(3,4-Dichlorophenyl)dimethyl(1H-1,2,4-triazol-1-ylmethyl)silane]
pest or weed control at 100 ppm (Helminthosporium maydis): 90% | pest or weed control at 2 g/kg seed (Pythium aphanadermatum [2]): 43% | pest or weed control at 100 ppm (Erysiphe graminis): 100% | pest or weed control at 100 ppm (Rhizoctonia solani): 80% | pest or weed control at 100 ppm (Pyricularia oryzae): 0% | pest or weed control at 100 ppm (Erysiphe cichoracearum): 100% | pest or weed control at 100 ppm [1]: 60% | No. of 5 Phytophthora species controlled in vitro (5 Phytophthora species): 2 | pest or weed control at 100 ppm (Venturia inaequalis): 80% | pest or weed control at 100 ppm (Phytophthora infestans): 0% | pest or weed control at 100 ppm (Cercospora arachidicola): 0%

C[Si](C)(Cn1cncn1)c1ccc(Br)cc1 [(4-Bromophenyl)dimethyl(1H-1,2,4-triazol-1-ylmethyl)silane]
pest or weed control at 100 ppm (Helminthosporium maydis): 90% | pest or weed control at 100 ppm (Pyricularia oryzae): 0% | Phytotoxicity on apple (apple seedlings; 100 ppm spray): G | pest or weed control at 100 ppm (Erysiphe cichoracearum): 100% | pest or weed control at 100 ppm [1]: 80% | pest or weed control at 100 ppm (Venturia inaequalis): 90% | pest or weed control at 100 ppm (Phytophthora infestans): 0% | Phytotoxicity on cucumber (cucumber seedlings): G | pest or weed control at 100 ppm (Cercospora arachidicola): 0%

CCCC[Si](C)(Cn1cncn1)c1ccc(Cl)cc1 (centres unmarked) [Butyl(4-chlorophenyl)methyl(1H-1,2,4-triazol-1-ylmethyl)silane]
pest or weed control at 100 ppm (Helminthosporium maydis): 0% | pest or weed control at 100 ppm (Erysiphe graminis): 90% | pest or weed control at 100 ppm (Rhizoctonia solani): 0% | pest or weed control at 100 ppm (Pyricularia oryzae): 0% | Phytotoxicity on apple (apple seedlings; 100 ppm spray): G | pest or weed control at 100 ppm (Erysiphe cichoracearum): 100% | inhibition of growth at 100 µg/mL (Monilinia fructicola): 98% | pest or weed control at 100 ppm [1]: 80% | pest or weed control at 100 ppm (Venturia inaequalis): 100% | pest or weed control at 100 ppm (Phytophthora infestans): 0% | Phytotoxicity on cucumber (cucumber seedlings): G | pest or weed control at 100 ppm (Cercospora arachidicola): 0%

CCCC[Si](C)(C)Cn1cncn1 [Butyldimethyl(1H-1,2,4-triazol-1-ylmethyl)silane]
pest or weed control at 100 ppm (Helminthosporium maydis): 0% | pest or weed control at 2 g/kg seed (Pythium aphanadermatum [2]): 0% | pest or weed control at 100 ppm (Pyricularia oryzae): 0% | pest or weed control at 100 ppm (Erysiphe cichoracearum): 100% | inhibition of growth at 100 µg/mL (Monilinia fructicola): 95% | pest or weed control at 100 ppm [1]: 0% | No. of 5 Phytophthora species controlled in vitro (5 Phytophthora species): 1 | pest or weed control at 100 ppm (Venturia inaequalis): 0% | pest or weed control at 2 g/kg seed (Pythium aphanadermatum [3]): 0% | pest or weed control at 100 ppm (Phytophthora infestans): 0% | pest or weed control at 100 ppm (Cercospora arachidicola): 0%

C[Si](C)(Cn1cncn1)c1cccc2ccccc12 [Dimethyl(1-naphthalenyl)(1H-1,2,4-triazol-1-ylmethyl)silane]
pest or weed control at 100 ppm (Helminthosporium maydis): 0% | pest or weed control at 2 g/kg seed (Pythium aphanadermatum [2]): 30% | pest or weed control at 100 ppm (Erysiphe graminis): 0% | pest or weed control at 100 ppm (Rhizoctonia solani): 0% | pest or weed control at 100 ppm (Pyricularia oryzae): 70% | pest or weed control at 100 ppm (Erysiphe cichoracearum): 100% | pest or weed control at 100 ppm [1]: 0% | pest or weed control at 100 ppm (Venturia inaequalis): 50% | pest or weed control at 100 ppm (Phytophthora infestans): 0% | pest or weed control at 100 ppm (Cercospora arachidicola): 90%

C[Si](C)(Cn1cncn1)c1ccccc1C(F)(F)F [Dimethyl(1H-1,2,4-triazol-1-ylmethyl)(2-trifluoromethylphenyl)silane]
pest or weed control at 100 ppm (Helminthosporium maydis): 0% | pest or weed control at 100 ppm (Erysiphe graminis): 100% | Phytotoxicity on apple (apple seedlings; applied at 400 ppm): G | pest or weed control at 100 ppm (Erysiphe cichoracearum): 100% | pest or weed control at 400 ppm (Venturia inaequalis; applied at 400 ppm): 65% | pest or weed control at 400 ppm (Cercospora arachidicola; applied at 400 ppm): 25%

Cc1ccc([Si](C)(C)Cn2cncn2)cc1 [Dimethyl(4-methylphenyl)(1H-1,2,4-triazol-1-ylmethyl)silane]
pest or weed control at 100 ppm (Helminthosporium maydis): 0% | pest or weed control at 2 g/kg seed (Pythium aphanadermatum [2]): 0% | pest or weed control at 100 ppm (Pyricularia oryzae): 0% | Phytotoxicity on apple (apple seedlings; 100 ppm spray): G | pest or weed control at 100 ppm (Erysiphe cichoracearum): 100% | pest or weed control at 100 ppm [1]: 0% | pest or weed control at 100 ppm (Venturia inaequalis): 50% | pest or weed control at 2 g/kg seed (Pythium aphanadermatum [3]): 0% | pest or weed control at 100 ppm (Phytophthora infestans): 0% | Phytotoxicity on cucumber (cucumber seedlings): G | pest or weed control at 100 ppm (Cercospora arachidicola): 0%

C[Si](C)(Cn1cncn1)c1ccc(Oc2ccccc2)cc1 [Dimethyl(4-phenoxyphenyl)(1H-1,2,4-triazol-1-ylmethyl)silane]
pest or weed control at 100 ppm (Helminthosporium maydis): 0% | pest or weed control at 2 g/kg seed (Pythium aphanadermatum [2]): 0% | pest or weed control at 100 ppm (Erysiphe graminis): 0% | pest or weed control at 100 ppm (Rhizoctonia solani): 0% | pest or weed control at 100 ppm (Pyricularia oryzae): 0% | pest or weed control at 100 ppm (Erysiphe cichoracearum): 70% | pest or weed control at 100 ppm [1]: 0% | No. of 5 Phytophthora species controlled in vitro (5 Phytophthora species): 0 | pest or weed control at 100 ppm (Venturia inaequalis): 100% | pest or weed control at 0.5 g/kg seed (Pythium aphanadermatum [3]; 0.5 gm/kg seed): 18% | pest or weed control at 100 ppm (Phytophthora infestans): 50% | pest or weed control at 100 ppm (Cercospora arachidicola): 0%

C[Si](Cn1cncn1)(c1ccccc1)c1ccccc1 [Methyldiphenyl(1H-1,2,4-triazol-1-ylmethyl)silane]
pest or weed control at 100 ppm (Helminthosporium maydis): 80% | pest or weed control at 2 g/kg seed (Pythium aphanadermatum [2]): 0% | pest or weed control at 100 ppm (Erysiphe graminis): 100% | pest or weed control at 100 ppm (Rhizoctonia solani): 0% | pest or weed control at 100 ppm (Pyricularia oryzae): 0% | pest or weed control at 100 ppm (Erysiphe cichoracearum): 100% | pest or weed control at 100 ppm [1]: 0% | pest or weed control at 100 ppm (Venturia inaequalis): 100% | pest or weed control at 2 g/kg seed (Pythium aphanadermatum [3]): 0% | pest or weed control at 100 ppm (Phytophthora infestans): 0% | Phytotoxicity on cucumber (cucumber seedlings): G | pest or weed control at 100 ppm (Cercospora arachidicola): 100%

C[Si](C)(Cn1cncn1)c1ccc(Oc2ccc(Cl)cc2)cc1 [[4-(4-Chlorophenoxy)phenyl]dimethyl(1H-1,2,4-triazol-1-ylmethyl)silane]
pest or weed control at 100 ppm (Helminthosporium maydis): 50% | pest or weed control at 100 ppm (Rhizoctonia solani): 0% | pest or weed control at 100 ppm (Pyricularia oryzae): 0% | pest or weed control at 100 ppm (Erysiphe cichoracearum): 80% | pest or weed control at 100 ppm [1]: 90% | No. of 5 Phytophthora species controlled in vitro (5 Phytophthora species): 0 | pest or weed control at 100 ppm (Venturia inaequalis): 100% | pest or weed control at 100 ppm (Phytophthora infestans): 50% | pest or weed control at 100 ppm (Cercospora arachidicola): 0%
